Experimental data taken from paper PMC9820592, “Novel Chiral Ru(II) Complexes as Potential c-myc G-quadruplex DNA Stabilizers Inducing DNA Damage to Suppress Triple-Negative Breast Cancer Progression” (International Journal of Molecular Sciences, 2022).

What was measured:
[1] = system: MDA-MB-231 cells; test: MTT assay, MDA-MB-231 cells; type: cell-based, human; conditions: 72 h, read-out: Inhibitory Effect (IC50/μM) MDA-MB-231
Method: (§1) Liver cancer HepG2 cells, lung cancer A549 cells, breast cancer MCF-7 and MDA-MB-231 cells, human nasopharyngeal carcinoma CNE-1 cells, and human immortalized keratinocyte HaCaT cells were seeded in 96-well plates (5 × 10^3 cells per well) and cultured at 37 °C and 5% CO2 for 24 h. Cells were treated with different concentrations of the complexes (0, 1.5625, 3.125, 6.25, 12.5, 25, 50, and 100 µM) for 72 h. After adding 20 µL MTT (5 mg/mL) solution to each well, the cells were incubated for 4 h, and then 150 µL DMSO was added to each well. The optical density of each well was detected by a microplate reader at a wavelength of 570 nm. The cell survival rate (%) = A(experimental group)/A(control group) × 100%, and the IC50 value was analyzed and calculated based on the survival rate.

[2] = system: MCF-7 cells; test: MTT assay, MCF-7 cells; type: cell-based, human; conditions: 72 h, read-out: Inhibitory Effect (IC50/μM) MCF-7
Method: as §1

[3] = system: γ-H2AX; test: γ-H2AX immunofluorescence; type: cell-based, human
Method: (§2) MDA-MB-231 cells were inoculated in a 6-well plate containing a cover glass. On the second day, the cells were treated with different concentrations of the complex (0, 5, and 10 μM) for 24 h. The cells were fixed with 4% paraformaldehyde for 20 min, and then blocked with 5% BSA for 0.5 h at room temperature. The 1:500 anti-γH2AX antibody was diluted with 5% FBS and incubated for 1 h. The cells were incubated with lgG (H + L) for 0.5 h and treated with DAPI for 5 min. The cover glass was then transferred to a specified microscope slide and photographed with laser confocal microscopy. The antibodies used in immunofluorescence to determine invasion and metastasis were anti-paxillin antibody (ab32115), Fluor 488-conjugated IgG (H + L) (Proteintech), and rhodamine phalloidin (Amanita phalloidin, cytoskeleton).

[4] = system: CNE-1 cells; test: MTT assay, CNE-1 cells; type: cell-based, human; conditions: 72 h, read-out: Inhibitory Effect (IC50/μM) CNE-1
Method: as §1

[5] = system: c-myc G-quadruplex DNA; test: PCR-stop assay; type: biochemical, human; conditions: Taq polymerase
Method: In this study, c-myc G4 DNA and its reverse complementary sequence c-myc rev were heated to 95 °C for 5 min, allowed to cool to room temperature, and incubated at 4 °C overnight. The system was supplemented with dNTPs and Taq polymerase for PCR amplification; heated at 95 °C for 3 min, 94 °C for 30 s, and 58 °C for 30 s, with an extension at 72 °C for 30 s (30 cycles); and analyzed by 15% nondenatured polyacrylamide gel electrophoresis and silver staining.

[6] = system: c-myc protein; test: c-myc protein expression in MDA-MB-231 cells; type: cell-based, human; conditions: 40 μΜ, 72 h
[7] = system: MDA-MB-231 cells; test: Immunofluorescence of paxillin and F-actin; type: cell-based, human; conditions: 24 h
Method: as §2

[8] = system: MDA-MB-231 cells; test: EdU proliferation assay; type: cell-based, human; conditions: control 50.2%
Method: The inhibitory effect of the chiral DPPZ-based Ru(II) complexes (Λ/Δ−1−3) was assessed against different human tumor cancer cells, such as breast cancer MCF-7, MDA-MB-231, lung cancer A549, liver carcinoma HepG2, nasopharyngeal carcinoma CNE-1, and human normal keratinocyte HaCaT cells, by MTT assay. […] Moreover, the inhibition of MDA-MB-231 cell proliferation by Δ−3 was detected by using an EdU (5-ethynyl-2′-deoxyuridine) staining kit, and EdU was incorporated into newly synthesized DNA in the sample cells. The red fluorescent azide is small enough to diffuse freely through native tissues and DNA, and it covalently cross-links to the EdU in a “click” chemistry reaction.

[9] = system: MDA-MB-231 cells; test: Flow cytometry, cell cycle distribution; type: cell-based, human; conditions: 72 h; for G0/G1: control 63.16%
Method: MDA-MB-231 cells were treated with different concentrations of the complexes (0, 10, 20, and 40 μM) for 72 h, then collected and stained with an Annexin V-FITC/PI Apoptosis Detection Kit I (BD, 556547). The MDA-MB-231 cells were fixed with 70% ethanol at 4 °C for 30 min, and then collected and stained with PI/RNase Staining Buffer (BD, 550825). The cells were analyzed by flow cytometry (Beckman, CytoFLEX). All experiments were repeated three times.

[10] = system: HUVECs; test: Tube formation assay; type: cell-based, human; conditions: 10 μM, 6 h, VEGF 200 ng/mL
Method: Dissolving matrigel (4 °C, 24 h) was used to coat prechilled 96-well plates (50 μL/well, 37 °C, for at least 60 min). Then, the unsolid fluid was removed, and HUVECs at the density of 3 × 10^4 were cultured in DMEM with VEGF (200 ng/mL) containing the different concentrations of Δ−3 (0, 5, and 10 μM) for 6 h.

[11] = system: c-myc G-quadruplex DNA; test: FRET melting assay; type: binding, human; conditions: free DNA Tm 59.5 °C
Method: Carboxy fluorescein (FAM) and 6-carboxytetramethyl rhodamine (TAMRA) double fluorescent-labeled c-myc G4 DNA (5′−FAM-TGAGGGTGGGAGGGGTAA-TAMRA−3′) were heated to 95 °C in Tris-HCl-KCl buffer (containing 10 mM Tris-HCl, 100 mM KCl, pH 7.4) for 5 min and slowly cooled to room temperature. To ds26, double-stranded DNA ([…]) is a competitive binder, research Λ/Δ−3 with c-myc G4 selectivity binding ability of DNA. A Bio-Radiq5 real-time PCR detection system was used to measure the fluorescence melting curve. Approximately 1 μM (5 μL) FPU22T was mixed with a series of 5 μL compound solutions of different concentrations, and 15 μLTris-HCl-KCl buffer was added to the PCR 8 tube to obtain a total volume of 25 μL. A real-time fluorescence quantitative PCR instrument was used, and incubation was performed at 30 °C for 30 min. The program temperature range was set to 30–95 °C at a temperature interval of 1 °C, and recording was performed after balancing for 30 s to detect the fluorescence value of FAM. The conditions of the reaction system were similar to those of the FRET melting point test except that different concentrations of ds26 were added.

Q: How did the IC50 [1] turn out when Δ-[Ru(bpy)2(3-NBEDPPZ)](ClO4)2 [Δ−3] was run?
A: Its IC50 is 25.5 µM.

Q: And the IC50 [2]?
A: The IC50 was 90.6 ± 6.34 µM.

Q: And the γ-H2AX production ([3]; 5 μM)?
A: The γ-H2AX production was “Green fluorescence was observed”.

Q: What about the γ-H2AX production ([3]; 10 μM) of the same substance?
A: Its γ-H2AX production is “the DNA damage was serious”.

Q: What about the IC50 [4] of the same substance?
A: The IC50 was 40.9 ± 0.53 µM.

Q: What about the “minimum concentration necessary for effective inhibition (PCR products)” value [5] of the same substance?
A: Its value is 2.5 µM.

Q: What about the “expression of the c-myc protein” value [6] of the same substance?
A: Its value is “effectively downregulated”.

Q: And the “focal adhesions (paxillin) and stress fibers (F-actin)” value [7]?
A: Its value is “the amount of paxillin decreased”.

Q: And the “proliferation rate (EdU)” value ([8]; 10 μM)?
A: Its value is 34.9%.

Q: And the “proliferation rate (EdU)” value ([8]; 20 μM)?
A: Its value is 22.0%.

Q: And the “proliferation rate (EdU)” value ([8]; 40 μM)?
A: The value was 5.1%.

Q: What about the G2/M ([9]; 10 μM) of the same substance?
A: The G2/M was 4.07%.

Q: And the S ([9]; 10 μM)?
A: Its S is 30.96%.

Q: And the SubG1 ([9]; 10 μM)?
A: The SubG1 was 5.40%.

Q: And the G0/G1 ([9]; 10 μM)?
A: Its G0/G1 is 64.97%.

Q: What about the G2/M ([9]; 20 μM) of the same substance?
A: The G2/M was 3.13%.

Q: What about the S ([9]; 20 μM) of the same substance?
A: Its S is 27.26%.

Q: And the SubG1 ([9]; 20 μM)?
A: Its SubG1 is 4.45%.

Q: What about the G0/G1 ([9]; 20 μM) of the same substance?
A: The G0/G1 was 69.61%.

Q: And the G2/M ([9]; 40 μM)?
A: Its G2/M is 2.93%.

Q: And the S ([9]; 40 μM)?
A: Its S is 29.70%.

Q: What about the SubG1 ([9]; 40 μM) of the same substance?
A: The SubG1 was 14.97%.

Q: What about the G0/G1 ([9]; 40 μM) of the same substance?
A: Its G0/G1 is 67.37%.

Q: What about the “tubular structures of HUVECs on Matrigel” value [10] of the same substance?
A: The value was “sparse and incomplete”.

Q: And the ΔTm ([11]; complex 0.5 μM)?
A: The ΔTm was “approximately 3.5 °C”.

Q: And the ΔTm ([11]; complex 1.0 μM)?
A: Its ΔTm is ~7.2 °C.
